The subject of this experiment is CD2F1 mice, L1210 leukemia ip, survival T/C. Kind of experiment: NCI In Vivo Anticancer Drug Screen. Data for tumor model L1210 Leukemia (intraperitoneal) in CD2F1 (CDF1) mice. Particulars: higher = longer survival. In a few lines: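 Read-out first: treated-group measurement over vehicle-control measurement, expressed as a ratio. Animals bore a transplanted tumor line and were dosed with compound or vehicle.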

Where [1] appears, read: endpoint: mean survival time, dose: 100.0 mg/kg/injection, schedule: Q01DX001 (ip), vehicle: saline with Tween-80.
Where [2] appears, read: endpoint: mean survival time, dose: 100.0 mg/kg/injection, schedule: Q04DX002 (ip), vehicle: saline with Tween-80.
The mark [3] stands for this setting: endpoint: mean survival time, dose: 200.0 mg/kg/injection, schedule: Q01DX001 (ip), vehicle: saline with Tween-80.
The mark [4] stands for this setting: endpoint: mean survival time, dose: 200.0 mg/kg/injection, schedule: Q04DX002 (ip), vehicle: saline with Tween-80.
Where [5] appears, read: endpoint: mean survival time, dose: 400.0 mg/kg/injection, schedule: Q01DX001 (ip), vehicle: saline with Tween-80.
Where [6] appears, read: endpoint: mean survival time, dose: 400.0 mg/kg/injection, schedule: Q04DX002 (ip), vehicle: saline with Tween-80.
[7] abbreviates: endpoint: mean survival time, dose: 100.0 mg/kg/injection, schedule: Q04DX003 (ip), vehicle: saline with Tween-80.
The mark [8] stands for this setting: endpoint: mean survival time, dose: 200.0 mg/kg/injection, schedule: Q04DX003 (ip), vehicle: saline with Tween-80.
Where [9] appears, read: endpoint: mean survival time, dose: 400.0 mg/kg/injection, schedule: Q04DX003 (ip), vehicle: saline with Tween-80.
Where [10] appears, read: endpoint: mean survival time, dose: 100.0 mg/kg/injection, schedule: Q01DX001 (ip), vehicle: saline.
Where [11] appears, read: endpoint: mean survival time, dose: 200.0 mg/kg/injection, schedule: Q01DX001 (ip), vehicle: saline.
The mark [12] stands for this setting: endpoint: mean survival time, dose: 400.0 mg/kg/injection, schedule: Q01DX001 (ip), vehicle: saline.

“And” between values parts separate entries of the source, which are not always exact repeats. Equal entries are not always repeated. Inconclusive results and toxic doses are left out.

For the molecule `CCOC(=O)NC1CCc2cc(OC)c(OC)c(OC)c2-c2ccc(OC)c(=O)cc21` (stereo not drawn), the T/C runs as follows: (endpoint: median survival time, dose: 2.5 mg/kg/injection, schedule: Q01DX005 (ip), vehicle: Klucel (hydroxypropylcellulose) (HPC)) 171 % of control; (endpoint: median survival time, dose: 3.0 mg/kg/injection, schedule: Q01DX005 (ip), vehicle: Klucel (hydroxypropylcellulose) (HPC)) 164 % of control; (endpoint: median survival time, dose: 5.0 mg/kg/injection, schedule: Q01DX005 (ip), vehicle: Klucel (hydroxypropylcellulose) (HPC)) 179 % of control and 187 % of control; (endpoint: median survival time, dose: 8.33 mg/kg/injection, schedule: Q01DX005 (ip), vehicle: Klucel (hydroxypropylcellulose) (HPC)) 107 % of control.
On to `O=C(Cc1ccccn1)Cc1ccccn1`, for which the T/C was 106 % of control under setting [1]; 100 % of control under setting [2]; 96 % of control under setting [3]; 100 % of control under setting [4]; 106 % of control under setting [5]; 104 % of control under setting [6].
For `O=[N+]([O-])c1ccccc1SSc1ccccc1[N+](=O)[O-]`, the T/C by setting is: under setting [7], 97 % of control; under setting [8], 95 % of control; under setting [9], 104 % of control.
For the molecule `CCCNC(=O)Oc1cccc(NC(=O)CC)c1`, the T/C reads like this: (endpoint: mean survival time, dose: 100.0 mg/kg/injection, schedule: Q01DX009 (ip), vehicle: saline with Tween-80) 96 % of control; (endpoint: mean survival time, dose: 400.0 mg/kg/injection, schedule: Q01DX009 (ip), vehicle: saline with Tween-80) 89 % of control.
For `NC(=O)C(Br)Cc1cccc(Cl)c1` (stereo not drawn), the T/C is 102 % of control (endpoint: mean survival time, dose: 50.0 mg/kg/injection, schedule: Q01DX001 (ip), vehicle: saline); 100 % of control under setting [10]; 100 % of control under setting [11]; 100 % of control under setting [12].
Consider `C=C(C)C(=O)O[C@H]1[C@H]2[C@H](OC(=O)[C@H]2C)[C@H](O)[C@@H](C)[C@@H]2C=CC(=O)[C@]21C`, for which the T/C was 91 % of control (endpoint: mean survival time, dose: 3.13 mg/kg/injection, schedule: Q01DX009 (ip), vehicle: saline); 95 % of control (endpoint: mean survival time, dose: 6.25 mg/kg/injection, schedule: Q01DX009 (ip), vehicle: saline); 102 % of control (endpoint: mean survival time, dose: 7.5 mg/kg/injection, schedule: Q01DX009 (ip), vehicle: saline); 93 % of control (endpoint: mean survival time, dose: 12.5 mg/kg/injection, schedule: Q01DX009 (ip), vehicle: saline); 103 % of control (endpoint: mean survival time, dose: 15.0 mg/kg/injection, schedule: Q01DX009 (ip), vehicle: saline); 108 % of control (endpoint: mean survival time, dose: 25.0 mg/kg/injection, schedule: Q01DX009 (ip), vehicle: saline). Also, under “endpoint: mean survival time, dose: 30.0 mg/kg/injection, schedule: Q01DX009 (ip), vehicle: saline”, the T/C is 102 % of control.
As for `O=C(NC1CCCCC1)NC1CCC(CC2CCCCC2)CC1` (stereo not drawn), the T/C is 98 % of control under setting [7], 96 % of control under setting [8] and 96 % of control under setting [9].
Consider `CC(=O)c1ccc2c([N+](=O)[O-])ccc3c2c1CC3`, for which the T/C reads like this: under setting [1], 97 % of control; under setting [3], 91 % of control; under setting [5], 94 % of control.
Turning to `NCCCNC(=O)OCc1ccccc1`, the T/C reads like this: under setting [10], 105 % of control; under setting [11], 102 % of control; under setting [12], 102 % of control.
With `CCOC(=O)Nc1cccc2c1-c1ccccc1/C2=N\NC(N)=S`, the T/C runs as follows: (endpoint: mean survival time, dose: 50.0 mg/kg/injection, schedule: Q01DX001 (ip), vehicle: carboxymethylcellulose (CMC)) 102 % of control; (endpoint: mean survival time, dose: 100.0 mg/kg/injection, schedule: Q01DX001 (ip), vehicle: carboxymethylcellulose (CMC)) 104 % of control; (endpoint: mean survival time, dose: 200.0 mg/kg/injection, schedule: Q01DX001 (ip), vehicle: carboxymethylcellulose (CMC)) 98 % of control; (endpoint: mean survival time, dose: 400.0 mg/kg/injection, schedule: Q01DX001 (ip), vehicle: carboxymethylcellulose (CMC)) 98 % of control.
`Cc1ccc(Cl)cc1NC(=S)NC(=O)COc1ccccc1`: the T/C runs as follows: (endpoint: mean survival time, dose: 12.5 mg/kg/injection, schedule: Q01DX009 (ip), vehicle: saline with Tween-80) 98 % of control and 106 % of control; (endpoint: mean survival time, dose: 25.0 mg/kg/injection, schedule: Q01DX009 (ip), vehicle: saline with Tween-80) 98 % of control; (endpoint: mean survival time, dose: 25.0 mg/kg/injection, schedule: Q04DX003 (ip), vehicle: saline with Tween-80) 100 % of control; (endpoint: mean survival time, dose: 50.0 mg/kg/injection, schedule: Q01DX001 (ip), vehicle: saline with Tween-80) 97 % of control; (endpoint: mean survival time, dose: 50.0 mg/kg/injection, schedule: Q04DX003 (ip), vehicle: saline with Tween-80) 96 % of control; under setting [1], 89 % of control. The T/C under setting [2] is 87 % of control, the T/C under setting [7] was 90 % of control, the T/C under setting [3] is 88 % of control and the T/C under setting [4] was 98 % of control.
`CCOC(=N)CNC(=O)c1ccccc1`: the T/C under setting [2] was 105 % of control, the T/C under setting [4] was 98 % of control and the T/C under setting [6] was 98 % of control.
Regarding `c1ccc(/C(=N\Nc2nc3ccccc3s2)c2ccncc2)cc1`, the T/C (endpoint: mean survival time, dose: 100.0 mg/kg/injection, schedule: Q04DX003 (ip), vehicle: Klucel (hydroxypropylcellulose) (HPC)) is 92 % of control; the T/C (endpoint: mean survival time, dose: 200.0 mg/kg/injection, schedule: Q04DX003 (ip), vehicle: Klucel (hydroxypropylcellulose) (HPC)) is 89 % of control; the T/C (endpoint: mean survival time, dose: 400.0 mg/kg/injection, schedule: Q04DX003 (ip), vehicle: Klucel (hydroxypropylcellulose) (HPC)) was 92 % of control.
As for `COc1ccc2c(c1)C=CC(C#N)N2` (stereo not drawn), the T/C is 87 % of control under setting [7] and 91 % of control under setting [8].
Regarding `Nc1cccc(CC(=O)Nc2cccc(S(=O)(=O)F)c2)c1`, the T/C reads like this: under setting [1], 96 % of control; under setting [3], 95 % of control; under setting [5], 90 % of control.
Consider `O=C1NC(=O)C([N+](=O)[O-])=C(O)C1=O`, for which the T/C by setting is: (endpoint: mean survival time, dose: 50.0 mg/kg/injection, schedule: Q01DX009 (ip), vehicle: saline) 102 % of control; (endpoint: mean survival time, dose: 100.0 mg/kg/injection, schedule: Q01DX009 (ip), vehicle: saline) 93 % of control; (endpoint: mean survival time, dose: 200.0 mg/kg/injection, schedule: Q01DX009 (ip), vehicle: saline) 90 % of control.
In the case of `COc1cccc(C(=O)CC(O)(C(F)(F)F)C(F)(F)F)c1`, the T/C (endpoint: mean survival time, dose: 100.0 mg/kg/injection, schedule: Q01DX009 (ip), vehicle: other) is 101 % of control; the T/C (endpoint: mean survival time, dose: 200.0 mg/kg/injection, schedule: Q01DX009 (ip), vehicle: other) was 97 % of control; the T/C (endpoint: mean survival time, dose: 400.0 mg/kg/injection, schedule: Q01DX009 (ip), vehicle: other) is 101 % of control.
For `NN1CCCCC1`, the T/C is, setting by setting: (endpoint: mean survival time, dose: 100.0 mg/kg/injection, schedule: Q04DX002 (ip), vehicle: saline) 103 % of control; (endpoint: mean survival time, dose: 200.0 mg/kg/injection, schedule: Q04DX002 (ip), vehicle: saline) 95 % of control.
With `O=C(O)CNC1CCCC1`, the T/C under setting [1] is 97 % of control, the T/C under setting [3] was 100 % of control and the T/C under setting [5] was 93 % of control.
On to `S=C(NCCCCCNC(=S)Nc1ccccc1)Nc1ccccc1`, for which the T/C was 96 % of control (endpoint: mean survival time, dose: 100.0 mg/kg/injection, schedule: Q04DX003 (ip), vehicle: acetone) and 108 % of control (endpoint: mean survival time, dose: 200.0 mg/kg/injection, schedule: Q04DX003 (ip), vehicle: acetone).
Regarding `COc1ccc2c(c1)OC(C)(C)C(c1ccccc1)=C2c1ccc(OCCN2CCCC2)cc1`, the T/C (endpoint: mean survival time, dose: 75.0 mg/kg/injection, schedule: Q01DX001 (ip), vehicle: saline) was 98 % of control.
Regarding `O=C1CC2/C(=[N+](/[O-])O)C=C([N+](=O)[O-])C(C1C(=O)Nc1ccccc1)C2[N+](=O)[O-]` (stereo not drawn), the T/C under setting [2] was 110 % of control, the T/C under setting [4] is 98 % of control and the T/C under setting [6] is 110 % of control.
On to `CC(=O)C(C(C)=O)c1ccc([N+](=O)[O-])cc1[N+](=O)[O-].CC(=O)C(C(C)=O)c1ccc([N+](=O)[O-])cc1[N+](=O)[O-].[Cu]`, for which the T/C (endpoint: median survival time, dose: 50.0 mg/kg/injection, schedule: Q04DX002 (ip), vehicle: saline with Tween-80) is 88 % of control; the T/C (endpoint: median survival time, dose: 100.0 mg/kg/injection, schedule: Q04DX002 (ip), vehicle: saline with Tween-80) was 88 % of control; the T/C (endpoint: median survival time, dose: 400.0 mg/kg/injection, schedule: Q04DX002 (ip), vehicle: saline with Tween-80) is 88 % of control.
As for `NS(=O)(=O)c1ccc(N=Nc2ccc([As](=O)(O)O)cc2)cc1`, the T/C reads like this: (endpoint: mean survival time, dose: 50.0 mg/kg/injection, schedule: Q04DX003 (ip), vehicle: saline) 104 % of control; (endpoint: mean survival time, dose: 100.0 mg/kg/injection, schedule: Q04DX003 (ip), vehicle: saline) 101 % of control; (endpoint: mean survival time, dose: 200.0 mg/kg/injection, schedule: Q04DX003 (ip), vehicle: saline) 101 % of control.

Source of the values: PubChem BioAssay AID256 (DTP/NCI, 2004).
